PubChem BioAssay AID2060358 (Molecular Pharmacology Branch, DTP, NCI, 2025)

Test system: 254851-301-R-J1-PDC spheroids, viability % test/control
Assay: Anticancer human tumor 254851-301-R-J1-PDC patient-derived colon carcinoma cell line growth inhibition [TAK]
Conditions: spheroids with HUVEC and MSC; for IC50: curve of first compound; for viability, T/C: stronger effect = lower value
Outline: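 Drug combinations, each paired with TAK-243 or ipatasertib, were tested on multi-cell spheroids of 60% malignant cells, 25% HUVEC and 15% hMSC. Top concentrations were at or near the clinical Cmax (10 microM if undetermined), decreasing by half-log; viability is given as % test/control.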

[1] = second compound 0.3 µM, first compound 0.0316 µM
[2] = second compound 0.3 µM, first compound 0.1 µM
[3] = second compound 0.3 µM, first compound 0.316 µM
[4] = second compound 0.3 µM, first compound 1 µM
[5] = second compound 0.949 µM, first compound 0.0316 µM
[6] = second compound 0.949 µM, first compound 0.1 µM
[7] = second compound 0.949 µM, first compound 0.316 µM
[8] = second compound 0.949 µM, first compound 1 µM
[9] = second compound 3 µM, first compound 0.0316 µM
[10] = second compound 3 µM, first compound 0.1 µM
[11] = second compound 3 µM, first compound 0.316 µM
[12] = second compound 3 µM, first compound 1 µM
[13] = second compound 9.49 µM, first compound 0.0316 µM
[14] = second compound 9.49 µM, first compound 0.1 µM
[15] = second compound 9.49 µM, first compound 0.316 µM
[16] = second compound 9.49 µM, first compound 1 µM
[17] = second compound 30 µM, first compound 0.0316 µM
[18] = second compound 30 µM, first compound 0.1 µM
[19] = second compound 30 µM, first compound 0.316 µM
[20] = second compound 30 µM, first compound 1 µM
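Also: spheroids exposed to drugs for seven days before viability readout.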
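For viability, T/C in this document: 100% = DMSO vehicle control viability.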

| SMILES | IC50 (second compound 0.3 µM) [µM] | IC50 (second compound 0.949 µM) [µM] | IC50 (second compound 3 µM) [µM] | IC50 (second compound 9.49 µM) [µM] | IC50 (second compound 30 µM) [µM] | viability, T/C [1] [%] | viability, T/C [2] [%] | viability, T/C [3] [%] | viability, T/C [4] [%] | viability, T/C [5] [%] | viability, T/C [6] [%] | viability, T/C [7] [%] | viability, T/C [8] [%] | viability, T/C [9] [%] | viability, T/C [10] [%] | viability, T/C [11] [%] | viability, T/C [12] [%] | viability, T/C [13] [%] | viability, T/C [14] [%] | viability, T/C [15] [%] | also measured |
| --- | --- | --- | --- | --- | --- | --- | --- | --- | --- | --- | --- | --- | --- | --- | --- | --- | --- | --- | --- | --- | --- |
| COc1c(OCCCN2CCOCC2)ccc2c3n(c(=NC(=O)c4cnc(N)nc4)nc12)CCN3 + CC(C)NCC(C(=O)N1CCN(c2ncnc3c2C(C)CC3O)CC1)c1ccc(Cl)cc1 | > 1 | > 1 | > 1 | > 1 | > 1 | 88.2 | 78.1 | 63.7 | 67.6 | 92.5 | 76.3 | 60 | 65 | 95.5 | 82.7 | 76.8 | 67.3 | 101 | 82.4 | 75.8 | viability, T/C (second compound 0.3 µM, first compound 0.00316 µM): 114%; viability, T/C (second compound 0.3 µM, first compound 0.01 µM): 105%; viability, T/C (second compound 0.949 µM, first compound 0.00316 µM): 104%; viability, T/C (second compound 0.949 µM, first compound 0.01 µM): 106%; viability, T/C (second compound 3 µM, first compound 0.00316 µM): 111%; viability, T/C (second compound 3 µM, first compound 0.01 µM): 108%; viability, T/C (second compound 9.49 µM, first compound 0.00316 µM): 99.1%; viability, T/C (second compound 9.49 µM, first compound 0.01 µM): 100%; viability, T/C [16]: 74.4%; viability, T/C (second compound 30 µM, first compound 0.00316 µM): 81.5%; viability, T/C (second compound 30 µM, first compound 0.01 µM): 85.1%; viability, T/C [17]: 84.2%; viability, T/C [18]: 71.5%; viability, T/C [19]: 69.8%; viability, T/C [20]: 59.9% |
| Cc1nc(NC(=O)N2CCCC2C(N)=O)sc1-c1ccnc(C(C)(C)C(F)(F)F)c1 (stereo not given) + CC(C)NCC(C(=O)N1CCN(c2ncnc3c2C(C)CC3O)CC1)c1ccc(Cl)cc1 | > 10 | > 10 | > 10 | > 10 | > 10 | 117 | 102 | 109 | 89.4 | 106 | 114 | 93.6 | 99.5 | 113 | 101 | 98 | 94.6 | 105 | 106 | 101 | viability, T/C (second compound 0.3 µM, first compound 3.16 µM): 79.4%; viability, T/C (second compound 0.3 µM, first compound 10 µM): 73.4%; viability, T/C (second compound 0.949 µM, first compound 3.16 µM): 83.1%; viability, T/C (second compound 0.949 µM, first compound 10 µM): 69%; viability, T/C (second compound 3 µM, first compound 3.16 µM): 79.3%; viability, T/C (second compound 3 µM, first compound 10 µM): 73.9%; viability, T/C [16]: 97.3%; viability, T/C (second compound 9.49 µM, first compound 3.16 µM): 85%; viability, T/C (second compound 9.49 µM, first compound 10 µM): 74.8%; viability, T/C [17]: 82.5%; viability, T/C [18]: 99.3%; viability, T/C [19]: 88.4%; viability, T/C [20]: 79.4%; viability, T/C (second compound 30 µM, first compound 3.16 µM): 79.4%; viability, T/C (second compound 30 µM, first compound 10 µM): 69.4% |
